From ChEMBL document CHEMBL4364286, “Structure-Guided Design, Synthesis, and Biological Evaluation of (2-(1H-Indol-3-yl)-1H-imidazol-4-yl)(3,4,5-trimethoxyphenyl) Methanone (ABI-231) Analogues Targeting the Colchicine Binding Site in Tubulin” (J Med Chem, 2019)
Active and inactive are the calls of the source. No cut-off for these calls is given here.

Experiments:
M14 = test: Antiproliferative activity against human M14 cells after 72 hrs by MTT assay; type: functional, cell-based; settings: M14, 72 h
[1] = Half-life in rat liver microsomes pre-incubated for 15 mins followed by addition of NADPH regenerating system by LC-MS analysis; type: ADME, Microsome
[2] = Acute toxicity in C57BL/6 mouse xenografted with mouse B16F10 cells assessed as injury to liver at 30 mg/kg, ip administered once daily for 2 weeks with 2 days rest after day 5 and measured after 15 days by hematoxylin and eosin staining-based assay; type: organism-based; settings: in vivo, 360 h
[3] = Acute toxicity in C57BL/6 mouse xenografted with mouse B16F10 cells assessed as injury to kidney at 30 mg/kg, ip administered once daily for 2 weeks with 2 days rest after day 5 and measured after 15 days by hematoxylin and eosin staining-based assay; type: organism-based; settings: in vivo, 360 h
[4] = Antitumor activity against human PC3-TxR cells xenografted in nude mouse assessed as reduction in tumor weight at 30 mg/kg administered every other day for 3 weeks relative to control; type: functional; parameters: scale not given: the % may be the effect or the level left
[5] = biological target: Sodium-dependent noradrenaline transporter (Homo sapiens, UniProt P23975); test: Antagonist activity at human norepinephrine transporter at 1 uM; type: ADME
RPMI-7951 = test: Antimigratory activity in human RPMI7951 cells assessed as wound closure at 25 nM after 18 hrs by scratch migration assay (reference value: 71.8 +/- 1.8%); type: functional
[6] = Antiproliferative activity against human DU145-TxR cells; type: functional, cell-based
A-375 [7] = test: Antitumor activity against human A375 cells xenografted in nude mouse assessed as reduction in tumor weight at 30 mg/kg, ip administered once daily for 14 days relative to control; type: functional; parameters: scale not given: the % may be the effect or the level left
[8] = Intrinsic clearance in CD-1 mouse liver microsomes in presence of NADPH regenerating system measured up to 4 hrs by UPLC-MS analysis; type: ADME, Microsome; settings: read-out: CLH
[9] = Antitumor activity against human PC3-TxR cells xenografted in nude mouse assessed as tumor growth inhibition at 30 mg/kg administered every other day for 3 weeks relative to control; type: functional; settings: 504 h, read-out: TGI
WM164 = test: Antiproliferative activity against human WM164 cells after 72 hrs by MTT assay; type: functional, cell-based; settings: WM164, 72 h
Tubulin (Homo sapiens) [10] = biological target: T1, Tubulin (Homo sapiens) (UniProt P68371+Q9H4B7+P0DPH7+P68366+Q13509+Q71U36+P04350+Q3ZCM7+P07437+P68363+Q9BQE3+Q6PEY2+Q13885+Q9BVA1+Q9BUF5); test: Disruption of microtubule network in human WM164 cells assessed as microtubule disassembly at 100 nM after 18 hrs by DAPI staining based fluorescence confocal microscopic method; type: cell-based
A-375 [11] = test: Antitumor activity against human A375 cells xenografted in nude mouse assessed as tumor growth inhibition at 15 mg/kg, ip administered once daily for 14 days and measured after 20 days by caliper method relative to control; type: functional; settings: A-375, ip, read-out: TGI
Tubulin (Homo sapiens) [12] = biological target: T1, Tubulin (Homo sapiens); test: Disruption of microtubule network in human WM164 cells assessed as microtubule fragmentation at 100 nM after 18 hrs by DAPI staining based fluorescence confocal microscopic method; type: cell-based
[13] = Acute toxicity in nude mouse xenografted with human A375 cells assessed as injury to liver at 30 mg/kg, ip administered once daily for 14 days by hematoxylin and eosin staining-based assay; type: organism-based; settings: in vivo, 336 h
A-375 [14] = test: Antiproliferative activity against human A375 cells after 72 hrs by MTT assay; type: functional, cell-based; settings: A-375, 72 h, read-out: IC50
A-375 [15] = test: Inhibition of anchorage-dependent colony formation in human A375 cells assessed as decrease in colony number at 5 nM after 12 days by crystal violet-staining based assay relative to control; type: functional; settings: A-375, 288 h
[16] = Acute toxicity in nude mouse xenografted with human A375 cells assessed as injury to kidney at 30 mg/kg, ip administered once daily for 14 days by hematoxylin and eosin staining-based assay; type: organism-based; settings: in vivo, 336 h
DU-145 = test: Antiproliferative activity against human DU145 cells; type: functional, cell-based
PC-3 = test: Antiproliferative activity against human PC3 cells; type: functional, cell-based
[17] = Acute toxicity in nude mouse xenografted with human A375 cells assessed as injury to lung at 30 mg/kg, ip administered once daily for 14 days by hematoxylin and eosin staining-based assay; type: organism-based; settings: in vivo, 336 h
[18] = Resistance index, ratio of IC50 for human DU145-TxR cells to IC50 for human DU145 cells; type: functional
[19] = Intrinsic clearance in rat liver microsomes pre-incubated for 15 mins followed by addition of NADPH regenerating system by LC-MS analysis; type: ADME, Microsome; settings: read-out: CLH
[20] = Toxicity in ip dosed ICR mouse assessed as maximum tolerated dose; type: organism-based; settings: in vivo
[21] = biological target: 5-hydroxytryptamine receptor 2B (Homo sapiens, UniProt P41595); test: Antagonist activity at human HTR2B at 1 uM
[22] = Acute toxicity in nude mouse xenografted with human A375 cells assessed as injury to lung at 15 mg/kg, ip administered once daily for 14 days by hematoxylin and eosin staining-based assay; type: organism-based; settings: in vivo, 336 h
[23] = Acute toxicity in C57BL/6 mouse xenografted with mouse B16F10 cells assessed as injury to heart at 30 mg/kg, ip administered once daily for 2 weeks with 2 days rest after day 5 and measured after 15 days by hematoxylin and eosin staining-based assay; type: organism-based; settings: in vivo, 360 h
A-375 [24] = test: Antimigratory activity in human A375 cells assessed as wound closure at 5 nM after 22 hrs by scratch migration assay (reference value: 60.7 +/- 3.5%); type: functional
[25] = Acute toxicity in nude mouse xenografted with human A375 cells assessed as injury to heart at 30 mg/kg, ip administered once daily for 14 days by hematoxylin and eosin staining-based assay; type: organism-based; settings: in vivo, 336 h
[26] = Acute toxicity in nude mouse xenografted with human A375 cells assessed as injury to spleen at 30 mg/kg, ip administered once daily for 14 days by hematoxylin and eosin staining-based assay; type: organism-based; settings: in vivo, 336 h
[27] = Acute toxicity in nude mouse xenografted with human A375 cells assessed as injury to spleen at 15 mg/kg, ip administered once daily for 14 days by hematoxylin and eosin staining-based assay; type: organism-based; settings: in vivo, 336 h
[28] = Antiproliferative activity against human PC3-TxR cells; type: functional, cell-based
[29] = Acute toxicity in nude mouse xenografted with human A375 cells assessed as injury to heart at 15 mg/kg, ip administered once daily for 14 days by hematoxylin and eosin staining-based assay; type: organism-based; settings: in vivo, 336 h
[30] = Half-life in human liver microsomes in presence of NADPH regenerating system; type: ADME, Microsome
[31] = Resistance index, ratio of IC50 for human PC3-TxR cells to IC50 for human PC3 cells; type: functional
A-375 [32] = test: Antimigratory activity in human A375 cells assessed as wound closure at 25 nM after 22 hrs by scratch migration assay (reference value: 60.7 +/- 3.5%); type: functional
A-375 [33] = test: Antitumor activity against human A375 cells xenografted in nude mouse assessed as reduction in tumor weight at 15 mg/kg, ip administered once daily for 14 days relative to control; type: functional; parameters: scale not given: the % may be the effect or the level left
[34] = Intrinsic clearance in human liver microsomes in presence of NADPH regenerating system; type: ADME, Microsome; settings: read-out: CLH
[35] = Toxicity in nude mouse xenografted with human PC-3/TxR cells assessed as effect on body weight at 30 mg/kg administered every other day for 3 weeks; settings: in vivo, 504 h
A-375 [36] = test: Antitumor activity against human A375 cells xenografted in nude mouse assessed as tumor growth inhibition at 30 mg/kg, ip administered once daily for 14 days and measured after 20 days by caliper method relative to control; type: functional; settings: A-375, ip, read-out: TGI
[37] = Acute toxicity in nude mouse xenografted with human A375 cells assessed as injury to liver at 15 mg/kg, ip administered once daily for 14 days by hematoxylin and eosin staining-based assay; type: organism-based; settings: in vivo, 336 h
[38] = Acute toxicity in C57BL/6 mouse xenografted with mouse B16F10 cells assessed as injury to lung at 30 mg/kg, ip administered once daily for 2 weeks with 2 days rest after day 5 and measured after 15 days by hematoxylin and eosin staining-based assay; type: organism-based; settings: in vivo, 360 h
Tubulin (Bos taurus) = Tubulin (Bos taurus) (UniProt Q6B856+Q862L2+Q862F3); test: Inhibition of bovine brain tubulin polymerization at 10 uM measured at time interval of 1 mins for 20 mins by spectrophotometric analysis
[39] = Acute toxicity in nude mouse xenografted with human A375 cells assessed as injury to kidney at 15 mg/kg, ip administered once daily for 14 days by hematoxylin and eosin staining-based assay; type: organism-based; settings: in vivo, 336 h
[40] = Acute toxicity in C57BL/6 mouse xenografted with mouse B16F10 cells assessed as injury to spleen at 30 mg/kg, ip administered once daily for 2 weeks with 2 days rest after day 5 and measured after 15 days by hematoxylin and eosin staining-based assay; type: organism-based; settings: in vivo, 360 h
[41] = Half-life in CD-1 mouse liver microsomes in presence of NADPH regenerating system measured up to 4 hrs by UPLC-MS analysis; type: ADME, Microsome
B16-F10 = test: Antimetastatic activity against mouse B16F10 cells xenografted in C57BL/6 mouse assessed as reduction in lung metastasis at 30 mg/kg, ip administered once daily for 2 weeks with 2 days rest after day 5 and measured after 15 days relative to control; type: functional; parameters: scale not given: the % may be the effect or the level left

Sequence of Sodium-dependent noradrenaline transporter (P23975 whole entry): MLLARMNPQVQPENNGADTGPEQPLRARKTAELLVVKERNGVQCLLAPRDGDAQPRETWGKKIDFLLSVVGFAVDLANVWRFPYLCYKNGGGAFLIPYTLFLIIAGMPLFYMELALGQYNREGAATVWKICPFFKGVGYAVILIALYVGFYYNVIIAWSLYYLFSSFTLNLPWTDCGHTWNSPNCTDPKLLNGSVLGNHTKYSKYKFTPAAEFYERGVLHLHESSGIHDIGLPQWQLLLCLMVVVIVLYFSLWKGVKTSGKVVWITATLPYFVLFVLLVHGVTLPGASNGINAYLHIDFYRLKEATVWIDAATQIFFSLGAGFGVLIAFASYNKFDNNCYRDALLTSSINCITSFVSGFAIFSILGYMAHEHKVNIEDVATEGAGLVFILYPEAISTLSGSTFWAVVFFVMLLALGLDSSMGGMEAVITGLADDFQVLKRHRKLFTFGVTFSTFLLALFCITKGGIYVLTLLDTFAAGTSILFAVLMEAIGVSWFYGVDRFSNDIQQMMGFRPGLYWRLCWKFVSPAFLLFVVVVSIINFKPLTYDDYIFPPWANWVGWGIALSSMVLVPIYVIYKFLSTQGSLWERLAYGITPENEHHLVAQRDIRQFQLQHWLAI
Sequence of 5-hydroxytryptamine receptor 2B (P41595 whole entry): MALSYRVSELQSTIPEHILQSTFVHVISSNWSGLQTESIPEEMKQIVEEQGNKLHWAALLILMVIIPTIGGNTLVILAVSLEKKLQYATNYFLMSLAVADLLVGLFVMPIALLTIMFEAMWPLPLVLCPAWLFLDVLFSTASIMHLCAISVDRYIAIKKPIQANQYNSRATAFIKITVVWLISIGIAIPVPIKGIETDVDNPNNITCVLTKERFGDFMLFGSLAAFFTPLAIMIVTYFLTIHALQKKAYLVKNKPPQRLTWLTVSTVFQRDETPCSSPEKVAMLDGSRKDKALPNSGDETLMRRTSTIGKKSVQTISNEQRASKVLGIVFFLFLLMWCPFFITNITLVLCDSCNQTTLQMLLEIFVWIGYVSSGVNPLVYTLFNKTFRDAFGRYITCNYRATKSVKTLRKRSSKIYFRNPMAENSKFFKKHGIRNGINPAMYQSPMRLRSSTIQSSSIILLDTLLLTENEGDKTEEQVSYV

Question: What does the source list for `COc1cc(C(=O)c2c[nH]c(-c3cccc4[nH]ccc34)n2)cc(OC)c1OC`?
Answer: IC50 (M14): 3.7 nM; half-life [1]: 5.26 h; Activity [2]: Non-Toxic; Activity [3]: Non-Toxic; Activity [4]: 62.8%; Activity [5]: Active; Activity (RPMI-7951): 35%; IC50 [6]: 379 nM; Activity (A-375 [7]): 70.1%; CLint scaled [8]: 11.3 mL/min/kg; inhibition in vivo at 30 mg/kg [9]: 83.8%; IC50 (WM164): 1.6 nM; Activity (Tubulin (Homo sapiens) [10]): Active; inhibition in vivo at 15 mg/kg (A-375 [11]): 82.3%; Activity (Tubulin (Homo sapiens) [12]): Active; Activity [13]: Non-Toxic; IC50 (A-375 [14]): 3.6 nM; inhibition at 0.005 µM (A-375 [15]): 35.6%; Activity [16]: Non-Toxic; IC50 (DU-145): 169 nM; IC50 (PC-3): 89.9 nM; Activity [17]: Non-Toxic; Ratio IC50 [18]: 2.2; CLint scaled [19]: 8.9 mL/min/kg; MTD [20]: ≤ 65 mg/kg; Activity [21]: Active; Activity [22]: Non-Toxic; Activity [23]: Non-Toxic; Activity (A-375 [24]): 38.5%; Activity [25]: Non-Toxic; Activity [26]: Non-Toxic; Activity [27]: Non-Toxic; IC50 [28]: 66.9 nM; Activity [29]: Non-Toxic; half-life [30]: 6.72 h; Ratio IC50 [31]: 0.7; Activity (A-375 [32]): 38.5%; Activity (A-375 [33]): 67.3%; CLint scaled [34]: 3.1 mL/min/kg; Activity [35]: Non-Toxic; inhibition in vivo at 30 mg/kg (A-375 [36]): 90.6%; Activity [37]: Non-Toxic; Activity [38]: Non-Toxic; inhibition (Tubulin (Bos taurus)): Active; Activity [39]: Non-Toxic; Activity [40]: Non-Toxic; half-life [41]: 5.04 h; Activity (B16-F10): 80.9%
